Assay results as given in patent US11673947B2, “Target tissue-specific antigen-binding molecule” (Chugai Seiyaku Kabushiki Kaisha, priority 2012, dated 2023).

What was measured:
IL-6 [1] = biological target: T1, IL-6 (Homo sapiens, UniProt P05231); experiment: Biacore T200, interaction between IL-6 and kynurenine; assay type: binding; design: purchased Kamakura Techno-Science, Inc; conditions: kynurenine at a maximal concentration of 800 nmol/l, about 5000 RU IL-6 immobilized, 25° C.
Protocol: The interaction between IL-6 (Kamakura Techno-Science, Inc.) and kynurenine was analyzed using Biacore T200 (GE Healthcare). Sensor chip CM5 (GE Healthcare) was immobilized with about 5000 RU of IL-6 by amine coupling, and 800, 400, 200, 100, 50, or 25 nmol/l kynurenine was allowed to interact with IL-6. The running buffer used was 10 mmol/l ACES, 150 mmol/l NaCl, 0.05% (w/v) Tween20, pH 7.4. All measurements for the interaction described above were carried out at 25° C. Kynurenine was diluted using the running buffer.
About 5000 RU of IL-6 was immobilized in the above-described experiment. The molecular weights of IL-6 and kynurenine were about 20000 g/mol and about 200 g/mol, respectively. Thus, at maximum about 50 RU of kynurenine was expected to interact.

IL-6 [2] = biological target: T1, IL-6; assay type: binding; design: purchased Kamakura Techno-Science, Inc; conditions: estimated
Protocol: Using Biacore T200 (GE Healthcare), A11 was analyzed for its interaction with human IL-6 (Kamakura Techno-Science, Inc.) in antigen-antibody reaction. Sensor chip CM5 (GE Healthcare) was immobilized with an appropriate amount of protein A/G (Invitrogen) by amine coupling. Antibodies of interest were captured by the chip to allow interaction to IL-6 as an antigen. The two types of running buffers used were 10 mmol/1 ACES, 150 mmol/l NaCl, 0.05% (w/v) Tween20, 100 μmol/l kynurenine, pH 7.4, and 10 mmol/1 ACES, 150 mmol/l NaCl, 0.05% (w/v) Tween20, pH 7.4. The interaction with IL-6 as an antigen was assessed at 37° C. The buffer used to dilute IL-6 was the same running buffer as described above.
A diluted solution of human IL-6 and a running buffer as a blank were injected at a flow rate of 5 μl/min for three minutes to allow interaction of human IL-6 with A11 captured on the sensor chip. […] The dissociation constant KD (M) of A11 was calculated for human IL-6 based on the association rate constant ka (1/Ms) and dissociation rate constant kd (1/s), both of which are kinetic parameters calculated from the sensorgram obtained by the measurement. Each parameter was calculated using the Biacore T200 Evaluation Software (GE Healthcare).
Then, the effect of kynurenine concentration on antigen-antibody reaction between A11 and human IL-6 was assessed using Biacore T200 (GE Healthcare). […]

hIL-6R = biological target: T2, hIL-6R (Homo sapiens, UniProt P08887); experiment: IgG ELISA, binding to hIL-6R in mouse serum with or without kynurenine; conditions: mouse serum with or without kynurenine
T2 sequence (P08887 20-355 limits assumed): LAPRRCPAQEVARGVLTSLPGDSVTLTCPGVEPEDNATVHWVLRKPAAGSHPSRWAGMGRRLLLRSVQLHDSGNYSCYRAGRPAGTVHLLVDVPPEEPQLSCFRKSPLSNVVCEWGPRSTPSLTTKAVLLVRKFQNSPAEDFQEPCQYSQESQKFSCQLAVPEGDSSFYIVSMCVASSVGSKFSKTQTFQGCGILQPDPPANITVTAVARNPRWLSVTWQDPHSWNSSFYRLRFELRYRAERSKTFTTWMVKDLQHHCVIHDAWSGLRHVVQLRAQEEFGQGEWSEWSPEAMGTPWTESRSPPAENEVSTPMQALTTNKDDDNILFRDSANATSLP
Protocol: As described in Example 14, antibody 6RNMSC1-2_F02 which has antigen-binding activity in the presence of kynurenine, and the known anti-hIL-6R antibody MRA were subjected to ELISA under the two conditions described in Table 20. The antigen used was biotin-labeled hIL-6R.
First, a StreptaWell 96 microtiter plate (Roche) was coated at room temperature for one hour or more with 100 μl of PBS containing the biotin-labeled antigen. After washing with Wash buffer to remove unbound antigen from the plate, each well was blocked for one hour or more with 250 μl of Blocking Buffer. After Blocking Buffer was removed from each well, each of the purified IgGs was prepared to 2.5 μg/ml under condition 2 shown in Table 20, and aliquoted at 100 μl into the plate. The plate was allowed to stand at room temperature for one hour to allow binding of each IgG to the antigen in each well. After washing with Wash Buffer containing 100 μM kynurenine, an HRP-conjugated anti-human IgG antibody (BIOSOURCE) diluted with Sample Buffer containing kynurenine was added to each well. The plate was incubated for one hour. Following wash with Wash Buffer containing kynurenine, the TMB single solution (ZYMED) was added to each well. The chromogenic reaction in the solution of each well was terminated by adding sulfuric acid. Then, the developed color was assessed by measuring absorbance at 450 nm.

BaF/hIL-6R cells = experiment: Flow cytometry, binding to membrane-type hIL-6R on BaF/hIL-6R cells; assay type: cell-based; conditions: with and without 100 μM kynurenine
Protocol: 6RNMSC1-2_F02 antibody which has an antigen-binding activity in the presence of kynurenine as described in Example 14 was assessed for its binding to soluble hIL-6R. As a first step in assessing the ADCC activity of 6RNMSC1-2_F02 to hIL-6R-expressing cells, 6RNMSC1-2_F02 was evaluated as to whether it has the ability to bind to membrane-type hIL-6R expressed in hIL-6R-expressing cells. Specifically, the binding of 6RNMSC1-2_F02 to cells of the BaF/hIL-6R line (WO2012/073992) was assayed and analyzed using a flow cytometer. An appropriate number of BaF/hIL-6R cells were prepared and blocked with PBS containing 2% FBS on ice for one hour or more. Supernatant was removed from the blocked cells by centrifugation, and 100 μl of 6RNMSC1-2_F02 or the control antibody MRA (the heavy chain and light chain sequences are shown in SEQ ID NOs: 92 and 93, respectively) was added under two conditions: in the presence or absence of a final concentration of kynurenine at 100 μM. In this step, the antibodies were contacted with cell-membrane hIL-6R on ice for 30 minutes. […] Then, in the presence or absence of kynurenine, the complex was contacted with a secondary antibody (Beckman Coulter IM1627) that recognizes the antibody constant region. […] The binding of 6RNMSC1-2_F02 to the prepared cells was assayed and analyzed using the BD FACS cant II Flow Cytometer (BD).

T1 sequence (P05231 30-212): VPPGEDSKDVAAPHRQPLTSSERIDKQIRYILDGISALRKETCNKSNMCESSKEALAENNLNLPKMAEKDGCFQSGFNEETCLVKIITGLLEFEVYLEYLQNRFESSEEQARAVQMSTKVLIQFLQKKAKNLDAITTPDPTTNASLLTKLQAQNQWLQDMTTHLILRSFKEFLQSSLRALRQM

## Nc1ccccc1C(=O)C[C@H](N)C(=O)O [kynurenine]
IL-6 [1]
  interaction with IL-6: not detectable
IL-6 [2]
  KD of kynurenine for formation of the complex consisting of A11, IL-6, and kynurenine: several tens nM to several nM

## MRA: known anti-human IL-6R antibody; SEQ ID NOs: 92 and 93 [reference compound]
hIL-6R
  absorbance, effect of kynurenine: the same regardless of the presence or absence of kynurenine
BaF/hIL-6R cells
  fluorescence (binding to membrane-type hIL-6R): detectable regardless of the presence or absence of kynurenine
